Experimental data: publication PMC5622107, “Small molecule inhibition of cGAS reduces interferon expression in primary macrophages from autoimmune mice” (Nature Communications, 2017)
“Also recorded” adds a separate entry of the source.

Key:
[1] = system: cGAS activity in dsDNA-stimulated RAW macrophages; assay: Cellular luciferase assay, interferon-responsive reporter in dsDNA-stimulated RAW macrophages; format: cell-based; conditions: Mus musculus, Macrophage, dsDNA-activated RAW cells
Description: (§1) The sequence and annealing conditions of the dsDNA used is described above. Typically, 0.4 µg or 0.6 µg of dsDNA was used to stimulate RAW-Lucia ISG-KO-TREX1/ISG-KO-cGAS or RAW-Lucia ISG cells, respectively, which equated to 90% of maximal luciferase activity observed. dsDNA stimulation of RAW macrophages and subsequent luciferase measurements were performed with or without the addition of small molecules at indicated concentrations in each figure, or with DMSO as vehicle control. For the dose curve experiments, serial dilutions of inhibitors were applied to 6.7 × 10^5 cells, plated in 24-well dishes, and co-stimulated with 0.4 µg of dsDNA. In subsequent experiments using inhibitors in RAW cells, the small molecules were used at concentrations representing the derived EC75 values, while co-stimulated with one of the following: 0.4 µg dsDNA, 50 nM 5′ppp-HP20 hairpin RNA (a kind gift from Dr Anna Pyle, Yale University; sequence located in Supplementary Table 5), 10 µM cGAMP, or 100 U ml^−1 murine recombinant Ifnb (R&D Systems). dsDNA was transfected using Lipofectamine LTX. 5′ppp-HP20 RNA was transfected using Lipofectamine 2000. Cells were harvested 24 h post-transfection, washed with PBS, and lysed in 1× Luciferase Cell Lysis Buffer (Pierce).
(§2) The minimum numbers of biological and technical replicates for the luciferase assays were two and three, respectively. Analysis of luminescence values were evaluated for outliers (one standard deviation above and below the mean) for each biological replicate, and the resulting means were used to generate graphs in GraphPad Prism (v. 7.0c); where applicable, an unpaired t-test with Welch’s correction was used to compare the results of each individual compound to dsDNA or other stimulant. The experimental variances observed within control samples (untreated or vehicle) and treated samples were similar.

[2] = system: RAW macrophage cells stimulated with 5′ppp-HP20 RNA, Pam3CSK4, poly(I:C), LPS or recombinant Ifnb; assay: Selectivity: RAW macrophages stimulated with non-DNA immunogenic ligands (luciferase reporter or Il-6 qRT-PCR); format: cell-based, mouse
Description: as §1, §2
The small molecules were used at concentrations representing the EC75 values and were co-stimulated with either 200 ng Pam3CSK4 (Invivogen), 25 µg poly(I:C) or 100 ng lipopolysaccharide (Sigma-Aldrich) at the cell counts and conditions previously described for the cellular luciferase assays. Cells were harvested 24 h post-transfection, washed with PBS, and RNA was extracted using Trizol (Ambion) and chloroform (Sigma-Aldrich). In all, 1–2 µg of total RNA was reverse-transcribed using random hex primers and SuperScript III (Life Technologies) into cDNA. […] The expression of mRNAs […] murine Actb1 and Il-6 were measured (see Supplementary Table 5 for primer sequences used). Target C T values were normalized to Actb1 C T values and used to calculate ΔC T. mRNA expression of target genes were then calculated using the ΔΔC T method (2^ΔΔCT). Expression values were analyzed as described in the method for cellular luciferase assays.

apo-cGAS = molecular target: T1, apo-cGAS (Mus musculus, UniProt Q8C6L5); assay: Isothermal titration calorimetry, cGAS in absence of dsDNA; format: binding
T1 construct: full-length (for high-throughput screening) and residues 147–507 (for structural study) of cGAS; His6-SUMO (N, cleaved yes); made in house; host or cells: E. coli BL21(DE3) RIL
T1 sequence (Q8C6L5 147-507): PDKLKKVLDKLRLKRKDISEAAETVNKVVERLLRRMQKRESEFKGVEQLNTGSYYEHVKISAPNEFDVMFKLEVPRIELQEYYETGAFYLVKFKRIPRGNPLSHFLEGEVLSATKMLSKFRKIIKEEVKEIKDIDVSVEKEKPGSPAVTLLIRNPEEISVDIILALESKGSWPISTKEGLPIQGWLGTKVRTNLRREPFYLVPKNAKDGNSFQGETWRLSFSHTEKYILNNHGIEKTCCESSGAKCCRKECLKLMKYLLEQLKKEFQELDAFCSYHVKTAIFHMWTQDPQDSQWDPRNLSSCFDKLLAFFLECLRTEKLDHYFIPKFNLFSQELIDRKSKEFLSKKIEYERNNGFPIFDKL
Description: ITC measurements were performed at 25 °C using a MicroCal auto-iTC200 calorimeter (MicroCal, LLC). Purified truncated mouse cGAS was dialyzed against 40 mM HEPES buffer (pH 7.5) and 300 mM NaCl for 24 h at 4 °C. Dialysis led to some precipitation, which were removed through centrifugation followed by collection of the supernatant. The concentration of the protein in supernatant was measured using Pierce® BCA protein assay. The protein was flash frozen in liquid N2 and stored at −80 °C. For the ITC assay, the dialyzed protein was prediluted to 20 µM in the dialysis buffer and diluted to a final concentration of 10 µM in a final buffer containing 40 mM HEPES, 1% DMSO, 150 mM NaCl, 0.01% Tween-20 and + /− dsDNA 10 µM and + /− ATP or GTP 1 mM. Then, 2 μl RU.365 100 µM, dissolved in the buffer aforementioned, were injected into 0.2 ml of protein in the chamber every 150 s. Data for raw ITC and thermodynamic curves, each from one experiment, were downloaded after analysis using Affinimeter software and plotted using GraphPad Prism (7.01). The software calculates error bars as an indication of the contribution of the raw data noise that is determined from the integral of the standard deviation of the baseline during the injection.

[3] = system: RAW KO-cGAS reporter cells; assay: RAW KO-cGAS reporter cells stimulated with cGAMP; format: cell-based, mouse
Description: as §1

[4] = system: BMDM cells from Trex1 −/− mice; assay: IFNB1 expression by qRT-PCR in BMDMs from Trex1 −/− mice; format: cell-based, mouse; conditions: 24 h treatment at IC50, qRT-PCR
Description: C57BL/6 wild type and Trex1 ^−/− offspring from Trex1 ^+/− crosses (a kind gift from Dr Dan Stetson, University of Washington) were harvested at 6–8 weeks of age. Femurs and tibias were removed from age- and sex-matched mice. The ends were clipped and marrow pushed from bones via syringe. Clumps were broken apart via pipetting, rinsed, and pelleted in PBS, passed through a cell strainer, and plated in seven 100 mm petri dishes per mouse. Cells were matured in media described under the methods for cell lines with an additional 10 ng ml^−1 M-CSF (for a total of 20 ng ml^−1 M-CSF during the maturation period). On Day 7, cells were counted and re-plated at 5 × 10^5 cells ml^−1 in 100 mm petri dishes. BMDMs were maintained by adding an equal volume of media to each dish every 2 days after harvesting and performing a complete media change every 4 days after harvesting. IACUC protocols for humane termination of mice for Vanderbilt University were strictly followed.
BMDMs were incubated in the presence of DMSO or the various inhibitors, then harvested 24 h later. RNA was extracted using Trizol and chloroform. […] Real-time PCR against murine Actb1 and IFNB1 (see Supplementary Table 5 for primer sequences used) was carried out and the data was analyzed as previously described in the method section for cytokine analysis in RAW macrophages.

Structure (SMILES): Cc1nn(-c2nc3ccccc3[nH]2)c(O)c1C1OC(=O)c2ccccc21 (stereo not drawn) [RU166365]
- IC50 [1]: 4980 nM
- Il-6 mRNA expression ([2]; cells activated by Pam3CSK4, poly(I:C), or LPS, qRT-PCR): increased Il-6 messenger RNA (mRNA) expression
- Kd (apo-cGAS): 98.5 nM
- T*ΔS (apo-cGAS): -1.511 kcal/mol
- rM (apo-cGAS): 0.9384
- ΔG (apo-cGAS): -9.559 kcal/mol
- ΔH (apo-cGAS): -11.07 kcal/mol

Structure (SMILES): Cc1nn(-c2nc3ccc(Cl)c(Cl)c3[nH]2)c(O)c1C1OC(=O)c2ccccc21 (stereo not drawn) [RU320521, 3-[1-(6,7-dichloro-1H-benzimidazol-2-yl)-5-hydroxy-3-methyl-pyrazol-4-yl]-3H-isobenzofuran-1-one]
- inhibition of reporter activity [3]: did not show any significant inhibition of reporter activity
- IFNB1 expression [4]: reduced IFNB1 expression
- IC50 [1]: 700 nM
- inhibition of cells stimulated with recombinant Ifnb ([2]; JAK/STAT signaling, luciferase reporter): did not inhibit
- suppression of activation by immunogenic stimuli other than dsDNA ([2]; compound at EC75, 5′ppp-HP20 RNA, Pam3CSK4, poly(I:C), LPS, Ifnb, listed as RU.521): unable to potently suppress activation; also recorded: little to no inhibitory effects
